Data on 6 molecules can be found in US10730875B2, “Substituted imidazo[1,2-A]pyridin-2-ylamine compounds, and pharmaceutical compositions and methods of use thereof” (JN Therapeutics, priority 2015, dated 2020).

Experiment [1] relates to human tyrosine kinase 2 (TYK2), recombinant catalytic domain. Description: LanthaScreen TR-FRET enzymatic assay, TYK2. Type of experiment: biochemical. The settings on record: ratio of IC50 against TYK2 over IC50 against JAK1. As for the experimental part:
(§1) The in vitro inhibition of recombinant human JAKs was determined as follow.
(§2) Compounds were tested in LANTHASCREEN™ time-resolved fluorescence energy transfer (TR-FRET) enzymatic assays from Invitrogen. The human Janus kinase 1 (JAK1) used in the assay is the recombinant JAK1 catalytic domain (amino acids 866-1154) expressed and purified from insect cells (Invitrogen, Cat. No. PV4774). The human Janus kinase 2 (JAK2) used in the assay is the recombinant JAK2 catalytic domain (amino acids 808-1132) expressed and purified from insect cells (Invitrogen, Cat. No. PV4210). The human Janus kinase 3 (JAK3) used in the assay is the recombinant JAK3 catalytic domain (amino acids 781-1124) expressed and purified from insect cells (Invitrogen, Cat. No. PV3855). The human tyrosine kinase 2 (TYK2) used in the assay is the recombinant TYK2 catalytic domain (amino acids 833-1187) expressed and purified from insect cells (Invitrogen, Cat. No. PV4790). The substrate is a recombinant STAT1 expressed as a fusion with GFP (Green Fluorescent Protein) to act as a physiological substrate (Invitrogen, Cat. No. PV5211).
(§3) Test compounds were prepared and diluted in DMSO in 3-fold serial dilutions for 10 doses to 100× of the final testing concentrations. The compounds were then further diluted to 4× by the kinase reaction buffer (Invitrogen, Cat. No. PV3189). The enzymatic reaction for compound testing was performed in a white 384-well polypropylene plate (Packard, Cat. No. 6005214) with a total reaction volume of 10 μL containing 440 ng/mL JAK1, 11 ng/mL JAK2, 400 ng/mL JAK3, or 200 ng/mL TYK2, 100 nM substrate, and 1 mM ATP. The assay started with loading 2.5 μL of JAK1, JAK2, JAK3, or TYK2 diluted in the kinase reaction buffer to wells, followed by addition of an equal volume of 4× compounds for 15-min incubation at room temperature for pre-treatment. The enzymatic reaction was initiated by addition of 5 μL of a mixture of the substrate and ATP prepared in the kinase reaction buffer. After one hour reaction, 10 μL mixture of EDTA (final 10 mM) and terbium-labeled anti-pSTAT1 (pTyr701) antibody (final 2 nM) (Invitrogen, Cat. No. PV4844) prepared in TR-FRET antibody dilution buffer (Invitrogen, Cat. No. PV3574) was added to stop the enzymatic reaction and produce TR-FRET signals. After 30 minutes of incubation at room temperature, the plate was read in Tecan Infinite F200 Pro with the following settings: Excitation 340 nm (30)/Emission1 495 nm (10)/Emission2 520 nm (25). The TR-FRET values were dimensionless numbers that were calculated as the ratio of the acceptor ([…]) signal to the donor (Terbium) signal. Percent of inhibition was calculated as (100%−percentage of compound-treated/DMSO vehicle-treated). The dose-response curves were generated and the IC50s were calculated by nonlinear sigmoid curve fitting using GraphPad Prism.
(§4) In Table 1, A represents a value no greater than 500 nM, B represents a value greater than 500 nM but no greater than 1 μM, C represents a value greater than 1 μM but no greater than 5 μM, and D represents a value greater than 5 μM. In Table 2, A′ represents a ratio of greater than 8, B′ represents a ratio of no greater than 8 but no less than 4, C′ represents a ratio of no greater than 4 but no less than 2, and D′ represents a ratio of no greater than 2. The selectivity is expressed as a ratio of the IC50 values of a compound against two kinases to be compared.

Experiment [2] concerns the target human tyrosine kinase 2 (TYK2), recombinant catalytic domain (Homo sapiens (Human), UniProt P29597). Kind of experiment: LanthaScreen TR-FRET enzymatic assay, TYK2. Type of experiment: biochemical. To be noted: TR-FRET, 1 mM ATP, GFP-STAT1 substrate; read-out: Inhibitory Activity IC50 TYK2. As for the experimental part: as §1, §2, §3, §4
Another experiment concerns the target JAK1 (Homo sapiens (Human), UniProt P23458). Description: Cellular JAK1 assay: IL-6-mediated STAT3 phosphorylation in TF-1 cells. The experiment is classed as cell-based. To be noted: IL-6 stimulation, STAT3 phosphorylation at Tyr705 (AlphaLISA), read-out: Inhibitory Activity Against JAK1 IC50. As for the experimental part:
The cellular potency of a compound on JAK1 or JAK2 inhibition is determined by measuring the cytokine-mediated phosphorylation of STAT proteins in TF-1 cells.
Human cytokines of IL-6 (R&D Systems, Cat. No. 206-IL-010/CF) and GM-CSF (R&D Systems, Cat. No. 215-GM-010/CF) are reconstituted at 10 μg/mL in D-PBS containing 0.1% BSA (Sigma, Cat. No. A8577) and human EPO (R&D Systems, Cat. No. 287-TC-500) at 500 U/mL in D-PBS containing 0.1% BSA. TF-1 cells (ATCC, CRL-2003) were grown in RPMI1640 (ATCC, Cat. No. 30-2001) supplemented with 2 ng/mL of recombinant human GM-CSF, 10% FBS (Gibco, Cat. No. 10437-028), and 100 U/mL penicillin-streptomycin (Gibco, Cat. No. 15140-122). The cells were maintained and propagated between 1×10^5 cells/mL to 7.5×10^5 cells/mL. Aliquots of the cells from early passages were preserved for liquid nitrogen storage. Frozen vials of the cells were thawed at 37° C. water bath. The cells were spun to remove freezing medium. The newly revived frozen cells were adapted in culture for 5-7 days before used for compound testing. The cells used in for compound testing were less than 20 subculture passages or 3 months in culture.
To test compounds, the TF-1 cells were harvested at a density of 3 to 7×10^5 cells/mL by centrifugation. After removing the culture medium, the resulting cell pellet was suspended and washed once by centrifugation with HBSS buffer (Gibco, Cat. No. 14025-092) containing 0.1% BSA. The cell pellet was resuspended in HBSS buffer at 7.5×10^6 cells/mL. Four micro-liters of the cells (3×10^4 cells in total) were added to each well of a white 384-well plate (Packard, Cat. No. 6005214).
The compounds were first diluted in dimethylsulfoxide (DMSO) (Sigma, Cat. No. D2650) to generate 9 3-fold diluted dosing concentrations in a 96-well polypropylene plate (Corning, Cat. No. 3365), followed by addition of HBSS buffer for another 125-fold dilution. To the cells, 2 μL of the diluted compounds were added and mixed by tapping the plate several times. The cells were incubated for 2 hrs of treatment. DMSO was used as a control and similarly diluted along and added to the cells.
To assay JAK1 inhibition, 2 μL of IL-6 diluted at 400 ng/mL (4×) in HBSS containing 0.1% BSA was added to the treated cells. The cells were then incubated for 30 min of cytokine treatment and lysed at the end by addition of 2 μL of 5×AlphaLISA SureFire Ultra lysis buffer from Perkin Elmer. The plate was agitated on a plate shaker for 10 min at room temperature. The cellular JAK1 activity was determined by measuring STAT3 phosphorylation at Tyr705 in lysates using the AlphaLISA SureFire Ultra kit (Perkin Elmer, Cat. No. ALSU-PST3-A500). A volume of 5 μL of acceptor mix and donor mix was added sequentially to lysates following the product protocol. The assay signals were recorded on EnVision plate reader (Perkin Elmer) with AlphaScreen optics setting.
The results are summarized in Table 3, where A represents a value no greater than 500 nM, B represents a value greater than 500 nM but no greater than 1 μM, C represents a value greater than 1 μM but no greater than 5 μM, and D represents a value greater than 5 μM.

Experiment [3] addresses human Janus kinase 2 (JAK2), recombinant catalytic domain (Homo sapiens (Human), UniProt O60674). Description: LanthaScreen TR-FRET enzymatic assay, JAK2. The settings on record: for IC50: TR-FRET, 1 mM ATP, GFP-STAT1 substrate, read-out: Inhibitory Activity IC50 JAK2; for Selectivity JAK2/JAK1: ratio of IC50 against JAK2 over IC50 against JAK1. The experiment is classed as biochemical. As for the experimental part:
as §1, §2, §3, §4

In experiment [4] the target is human Janus kinase 1 (JAK1), recombinant catalytic domain (Homo sapiens (Human), UniProt P23458). Description: LanthaScreen TR-FRET enzymatic assay, JAK1. Type of experiment: biochemical. To be noted: 1 mM ATP, GFP-STAT1 substrate, read-out: Inhibitory Activity IC50 JAK1. As for the experimental part: as §1, §2, §3, §4
Sequence of human Janus kinase 1 (JAK1), recombinant catalytic domain (P23458 866-1154): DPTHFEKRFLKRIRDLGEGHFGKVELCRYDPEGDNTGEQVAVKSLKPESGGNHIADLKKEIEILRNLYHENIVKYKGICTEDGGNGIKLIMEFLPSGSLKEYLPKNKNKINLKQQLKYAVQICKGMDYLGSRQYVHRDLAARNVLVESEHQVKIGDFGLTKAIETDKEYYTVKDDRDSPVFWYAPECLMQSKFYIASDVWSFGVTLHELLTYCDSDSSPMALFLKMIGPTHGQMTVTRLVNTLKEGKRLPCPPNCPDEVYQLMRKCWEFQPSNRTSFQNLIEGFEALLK
Experiment [5] has as its target human Janus kinase 3 (JAK3), recombinant catalytic domain (Homo sapiens (Human), UniProt P52333). Description: LanthaScreen TR-FRET enzymatic assay, JAK3. The settings on record: TR-FRET, 1 mM ATP, GFP-STAT1 substrate; read-out: Inhibitory Activity IC50 JAK3. Type of experiment: biochemical. As for the experimental part:
as §1, §2, §3, §4

The subject of experiment [6] is human Janus kinase 3 (JAK3), recombinant catalytic domain. Description: LanthaScreen TR-FRET enzymatic assay, JAK3. Type of experiment: biochemical. To be noted: ratio of IC50 against JAK3 over IC50 against JAK1. As for the experimental part: as §1, §2, §3, §4

Sequence of human tyrosine kinase 2 (TYK2), recombinant catalytic domain (Homo sapiens (Human), UniProt P29597) (P29597 833-1187): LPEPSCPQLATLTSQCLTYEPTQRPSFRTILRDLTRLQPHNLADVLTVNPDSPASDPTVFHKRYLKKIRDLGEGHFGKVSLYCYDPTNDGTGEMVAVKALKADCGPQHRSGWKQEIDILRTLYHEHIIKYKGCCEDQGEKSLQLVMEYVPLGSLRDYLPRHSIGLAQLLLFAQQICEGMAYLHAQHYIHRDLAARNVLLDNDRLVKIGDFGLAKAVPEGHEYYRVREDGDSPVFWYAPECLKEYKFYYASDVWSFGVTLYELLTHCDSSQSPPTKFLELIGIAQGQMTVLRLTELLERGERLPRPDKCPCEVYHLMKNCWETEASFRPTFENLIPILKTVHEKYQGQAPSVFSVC
Sequence of JAK1 (P23458 whole entry): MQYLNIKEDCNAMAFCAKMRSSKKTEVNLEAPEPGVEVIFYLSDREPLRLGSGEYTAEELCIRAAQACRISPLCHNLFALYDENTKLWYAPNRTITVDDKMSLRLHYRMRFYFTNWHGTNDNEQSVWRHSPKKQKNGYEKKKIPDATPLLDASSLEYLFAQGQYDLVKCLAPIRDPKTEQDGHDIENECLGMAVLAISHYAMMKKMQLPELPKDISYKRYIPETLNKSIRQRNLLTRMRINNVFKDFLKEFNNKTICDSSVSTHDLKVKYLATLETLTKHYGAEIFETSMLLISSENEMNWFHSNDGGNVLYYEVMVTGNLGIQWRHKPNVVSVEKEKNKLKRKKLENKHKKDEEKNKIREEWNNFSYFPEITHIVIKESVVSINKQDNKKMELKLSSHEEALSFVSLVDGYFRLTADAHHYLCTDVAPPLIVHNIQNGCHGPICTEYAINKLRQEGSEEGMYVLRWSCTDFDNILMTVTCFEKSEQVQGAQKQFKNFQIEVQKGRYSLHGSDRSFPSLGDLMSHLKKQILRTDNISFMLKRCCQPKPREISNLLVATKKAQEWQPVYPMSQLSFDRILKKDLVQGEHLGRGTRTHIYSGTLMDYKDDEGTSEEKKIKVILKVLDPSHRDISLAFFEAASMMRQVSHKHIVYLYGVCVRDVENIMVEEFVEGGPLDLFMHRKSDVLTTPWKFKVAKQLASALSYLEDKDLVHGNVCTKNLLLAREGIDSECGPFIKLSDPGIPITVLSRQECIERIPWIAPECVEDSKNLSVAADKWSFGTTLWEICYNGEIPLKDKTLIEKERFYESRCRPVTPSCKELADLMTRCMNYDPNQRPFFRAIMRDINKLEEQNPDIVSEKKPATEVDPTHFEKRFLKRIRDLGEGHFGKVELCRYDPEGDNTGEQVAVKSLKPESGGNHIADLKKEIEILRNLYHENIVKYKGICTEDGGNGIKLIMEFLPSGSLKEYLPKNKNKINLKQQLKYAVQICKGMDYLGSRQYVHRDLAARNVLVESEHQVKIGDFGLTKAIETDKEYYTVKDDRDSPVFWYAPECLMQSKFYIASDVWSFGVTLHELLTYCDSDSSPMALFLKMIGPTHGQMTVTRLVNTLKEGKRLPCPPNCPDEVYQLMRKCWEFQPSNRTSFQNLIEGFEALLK
Sequence of human Janus kinase 2 (JAK2), recombinant catalytic domain (O60674 808-1132): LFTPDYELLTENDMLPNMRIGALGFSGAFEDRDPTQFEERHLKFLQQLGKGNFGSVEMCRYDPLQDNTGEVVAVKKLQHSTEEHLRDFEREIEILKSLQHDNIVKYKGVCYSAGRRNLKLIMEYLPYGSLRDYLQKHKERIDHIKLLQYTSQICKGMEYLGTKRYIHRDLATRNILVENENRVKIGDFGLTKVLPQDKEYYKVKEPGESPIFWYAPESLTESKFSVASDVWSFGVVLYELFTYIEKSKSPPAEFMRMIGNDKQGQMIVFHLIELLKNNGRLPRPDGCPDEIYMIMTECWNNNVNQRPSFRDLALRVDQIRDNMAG
Sequence of human Janus kinase 3 (JAK3), recombinant catalytic domain (Homo sapiens (Human), UniProt P52333) (P52333 781-1124): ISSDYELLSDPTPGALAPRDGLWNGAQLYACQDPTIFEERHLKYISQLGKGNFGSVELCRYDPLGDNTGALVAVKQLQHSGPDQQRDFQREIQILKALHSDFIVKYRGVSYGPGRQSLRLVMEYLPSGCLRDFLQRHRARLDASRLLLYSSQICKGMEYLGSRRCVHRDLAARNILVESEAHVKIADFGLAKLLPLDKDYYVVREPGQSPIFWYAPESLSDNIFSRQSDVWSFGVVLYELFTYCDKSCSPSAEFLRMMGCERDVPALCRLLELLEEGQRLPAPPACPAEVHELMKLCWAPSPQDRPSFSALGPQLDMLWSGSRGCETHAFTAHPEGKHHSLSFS

As for `O=C(Nc1cn2c(-c3ccc(NS(=O)(=O)C4CC4)cc3)cccc2n1)C1CC1` [Compound 30], the “Selectivity TYK2/JAK1” value in experiment [1] is “B′ (B′ represents a ratio of no greater than 8 but no less than 4)”. The half-maximal inhibitory concentration (IC50) was no more than 500 nM in experiment [2]; no more than 500 nM at JAK1; 500 to 1000 nM in experiment [3]; no more than 500 nM in experiment [4]; greater than 5000 nM in experiment [5]. For the same molecule, in experiment [3], the “Selectivity JAK2/JAK1” value is recorded as “A′ (A′ represents a ratio of greater than 8)”. In experiment [6], the “Selectivity JAK3/JAK1” value was “A′ (A′ represents a ratio of greater than 8)”.

As to `O=C(Nc1cn2c(-c3ccc(CN4CCS(=O)(=O)CC4)c(F)c3)cccc2n1)C1CC1` [Compound 28], the “Selectivity TYK2/JAK1” value in experiment [1] is on record as “A′ (A′ represents a ratio of greater than 8)”. Moreover, the half-maximal inhibitory concentration (IC50) in experiment [2] was 500 to 1000 nM; at JAK1, no more than 500 nM; in experiment [3] it was 500 to 1000 nM; in experiment [4], no more than 500 nM; in experiment [5], greater than 5000 nM. Besides, the “Selectivity JAK2/JAK1” value in experiment [3] is “A′ (A′ represents a ratio of greater than 8)”. Also, the “Selectivity JAK3/JAK1” value in experiment [6] was “A′ (A′ represents a ratio of greater than 8)”.

Take `N#CCc1ccc(-c2cccc3nc(NC(=O)C4CC4)cn23)cc1F` [Compound 26]: the “Selectivity TYK2/JAK1” value in experiment [1] is on record as “A′ (A′ represents a ratio of greater than 8)”. Also, the IC50 was greater than 5000 nM in experiment [2]; no more than 500 nM on JAK1; greater than 5000 nM in experiment [3]; no more than 500 nM in experiment [4]; greater than 5000 nM in experiment [5]. Besides, the “Selectivity JAK2/JAK1” value in experiment [3] is given as “A′ (A′ represents a ratio of greater than 8)”. In addition, the “Selectivity JAK3/JAK1” value in experiment [6] was “A′ (A′ represents a ratio of greater than 8)”.

For the molecule `CC1(C)CN(C(=O)c2ccc(-c3cccc4nc(NC(=O)C5CC5)cn34)cc2F)C1` [Compound 24], the “Selectivity TYK2/JAK1” value in experiment [1] is given as “A′ (A′ represents a ratio of greater than 8)”. The IC50 in experiment [2] was 1000 to 5000 nM; at JAK1 it was no more than 500 nM; in experiment [3], 1000 to 5000 nM; in experiment [4] it was no more than 500 nM; in experiment [5] it was greater than 5000 nM. In experiment [3], the “Selectivity JAK2/JAK1” value is reported as “A′ (A′ represents a ratio of greater than 8)”. Also, the “Selectivity JAK3/JAK1” value in experiment [6] is “A′ (A′ represents a ratio of greater than 8)”.

In the case of `CC1(C)CN(C(=O)c2ccc(-c3cccc4nc(NC(=O)C5CC5)cn34)cc2)C1` [Compound 17], the “Selectivity TYK2/JAK1” value in experiment [1] is “A′ (A′ represents a ratio of greater than 8)”. The half-inhibitory concentration (IC50) in experiment [2] was 1000 to 5000 nM; on JAK1, no more than 500 nM; in experiment [3] it was 1000 to 5000 nM; in experiment [4] it was no more than 500 nM; in experiment [5] it was greater than 5000 nM. Besides, the “Selectivity JAK2/JAK1” value in experiment [3] is on record as “A′ (A′ represents a ratio of greater than 8)”. Moreover, the “Selectivity JAK3/JAK1” value in experiment [6] is reported as “A′ (A′ represents a ratio of greater than 8)”.

In the case of `O=C(Nc1cn2c(-c3ccc(CN4CCS(=O)(=O)CC4)cc3)cccc2n1)C1CC1` [Compound 1, N-(5-(4-((1,1-Dioxo-1-thiomorpholino)methyl)phenyl)imidazo[1,2-a]pyridin-2-yl) cyclopropanecarboxamide], the “Selectivity TYK2/JAK1” value in experiment [1] is “A′ (A′ represents a ratio of greater than 8)”. The concentration for half-maximal inhibition (IC50) is 1000 to 5000 nM in experiment [2]; no more than 500 nM on JAK1; 1000 to 5000 nM in experiment [3]; no more than 500 nM in experiment [4]; greater than 5000 nM in experiment [5]. Further, the “Selectivity JAK2/JAK1” value in experiment [3] is “A′ (A′ represents a ratio of greater than 8)”. Besides, the “Selectivity JAK3/JAK1” value in experiment [6] is reported as “A′ (A′ represents a ratio of greater than 8)”.
